Test results published in ChEMBL document CHEMBL1134129, “Novel and potent tacrine-related hetero- and homobivalent ligands for acetylcholinesterase and butyrylcholinesterase” (Bioorg Med Chem Lett, 2001).
pKi: −log10 of the molar value.

What was measured:
Butyrylcholinesterase = Butyrylcholinesterase (Equus caballus, UniProt Q9N1N9)
Description: Inhibition of equine (Eq) Butyrylcholinesterase

Acetylcholinesterase = biological target: T1, Acetylcholinesterase (Bos taurus, UniProt P23795)
T1 sequence (P23795 whole entry): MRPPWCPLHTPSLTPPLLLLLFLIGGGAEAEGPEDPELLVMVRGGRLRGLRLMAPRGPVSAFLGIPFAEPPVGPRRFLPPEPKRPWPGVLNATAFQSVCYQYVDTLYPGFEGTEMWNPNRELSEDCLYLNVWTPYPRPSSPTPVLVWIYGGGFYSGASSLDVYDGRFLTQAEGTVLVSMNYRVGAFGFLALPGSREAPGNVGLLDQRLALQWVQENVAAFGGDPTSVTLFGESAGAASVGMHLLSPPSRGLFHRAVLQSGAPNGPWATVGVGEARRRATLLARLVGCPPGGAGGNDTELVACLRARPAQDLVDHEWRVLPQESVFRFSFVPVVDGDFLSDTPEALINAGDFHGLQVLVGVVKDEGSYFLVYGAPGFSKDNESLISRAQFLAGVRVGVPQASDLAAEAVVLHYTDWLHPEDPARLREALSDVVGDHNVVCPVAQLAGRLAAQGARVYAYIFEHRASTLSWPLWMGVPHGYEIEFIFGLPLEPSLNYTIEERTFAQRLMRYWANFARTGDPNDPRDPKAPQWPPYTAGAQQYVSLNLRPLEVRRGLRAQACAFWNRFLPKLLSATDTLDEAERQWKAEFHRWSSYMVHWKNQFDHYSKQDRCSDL
Description: Inhibition of acetylcholinesterase (AChE) of fetal bovine serum (FBS)

Sequence of Butyrylcholinesterase (Q9N1N9 whole entry): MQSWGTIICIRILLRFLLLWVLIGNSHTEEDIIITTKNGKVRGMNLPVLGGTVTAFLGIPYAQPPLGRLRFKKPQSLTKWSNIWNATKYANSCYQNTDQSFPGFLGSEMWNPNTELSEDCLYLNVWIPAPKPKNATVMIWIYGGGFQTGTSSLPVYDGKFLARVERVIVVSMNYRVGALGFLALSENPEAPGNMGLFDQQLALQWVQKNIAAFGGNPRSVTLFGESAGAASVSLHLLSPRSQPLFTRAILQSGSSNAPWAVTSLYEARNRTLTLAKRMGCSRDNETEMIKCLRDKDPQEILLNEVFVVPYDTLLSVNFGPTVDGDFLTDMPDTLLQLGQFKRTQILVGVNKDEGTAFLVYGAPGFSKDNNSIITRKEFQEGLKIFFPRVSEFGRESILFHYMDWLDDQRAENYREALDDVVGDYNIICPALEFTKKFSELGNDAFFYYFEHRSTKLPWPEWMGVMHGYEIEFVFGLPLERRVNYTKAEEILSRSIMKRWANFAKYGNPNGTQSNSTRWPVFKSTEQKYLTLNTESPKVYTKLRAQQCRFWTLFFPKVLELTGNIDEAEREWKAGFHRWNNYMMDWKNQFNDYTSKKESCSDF

Structure (SMILES) | pKi (Butyrylcholinesterase) | pKi (Acetylcholinesterase)
Clc1cc(Cl)c2nc3c(c(SCCCCCCCNc4c5c(nc6ccccc46)CCCC5)c2c1)CCCC3 | 7.10 | 6.54
c1ccc2c(NCCCCCCCNc3c4c(nc5ccccc35)CCCC4)c3c(nc2c1)CCCC3 | 8.70 | 
Nc1c2c(nc3cc(Cl)cc(Cl)c13)CCCC2 | 7.30 | 9.00
Clc1cc(Cl)c2c(NCCCCCCCSc3c4c(nc5ccccc35)CCCC4)c3c(nc2c1)CCCC3 | 6.60 | 
Clc1cc(Cl)c2c(SCCCCCCNc3c4c(nc5ccccc35)CCCC4)c3c(nc2c1)CCCC3 | 7.35 | 6.92
c1ccc2c(NCCCCCCCSc3c4c(nc5ccccc35)CCCC4)c3c(nc2c1)CCCC3 | 7.46 | 6.47
c1ccc2c(NCCCCSc3c4c(nc5ccccc35)CCCC4)c3c(nc2c1)CCCC3 | 7.40 | 6.19
c1ccc2c(SCCCCCCCSc3c4c(nc5ccccc35)CCCC4)c3c(nc2c1)CCCC3 | 6.42 | < 5.00
